The text below walks through data of patent US10136642B2, “Composition of peracetic acid and at least one organic fungicide for the control and/or the treatment of diseases associated with the presence of pathogens, and method, use and kit involving said composition” (priority 2015, dated 2018).

Structures can show the parent of a compound that is named as a salt.

One series concerns Erwinia amylovora. Put plainly: Example 5 in vitro agar well inhibition of Erwinia amylovora. The class given is cell-based. The settings on record: LBA plates, 25° C., 72 hours; for bacterial inhibition zone (diameter): 1 cm center well. As to the method:
Virgin Luria-Bertani agar (LBA) plates were inoculated in triplicate each with 1 mL of concentrated Erwinia amylovora suspension by aseptically spreading the bacteria uniformly onto the agar surfaces. A center well 1 cm in diameter was punched into the agar of each plate. Test products were added dropwise into each of these center wells until the liquid level just reached the agar surface (normally 5-7 drops were required). Plates were incubated at 25° C. for 72 hours then observed for evidence of bacterial growth inhibition.
Treatment List • 1. NEO-BOOST at 3.6 g/L. • 2. FireLine® [oxytetracycline hydrochloride 17% w/w] at 1.2 g/L • 3. FireWall® [streptomycin sulfate 17% w/w] at 0.6 g/L • 4. FireLine® at 1.2 g/L+FireWall® at 0.6 g/L • 5. NEO-BOOST at 3.6 g/L+FireLine® at 1.2 g/L • 6. NEO-BOOST at 3.6 g/L+FireWall® at 0.6 g/L • 7. NEO-BOOST at 3.6 g/L+FireLine® at 1.2 g/L+FireWall® at 0.6 g/L 8. Water.

Series [1] is described as follows: Example 4 HPLC compatibility: degradation of azoxystrobin by NEO-BOOST 18/18. The conditions noted are these: NEO-BOOST 18/18 at 3.6 g/L combined with 0.5 g/L azoxystrobin as Quadris. The class given is physicochemical. On the procedure:
NEO-BOOST 18/18 at 3.6 g/L was combined with 0.5 g/L azoxystrobin in the form of Quadris®. In addition, several controls were prepared consisting of respectively: 0.5 g/L azoxystrobin in the form of Quadris®, and NEO-BOOST 18/18 at 3.6 g/L. All of the above were then converted or rendered into a form that could be analyzed by high-performance liquid chromatography (HPLC). The HPLC column was first calibrated with the reference standard azoxystrobin and then the samples were injected into the column at predetermined intervals to see whether the Quadris® was degraded at all by the NEO-BOOST 18/18.

Series [2] in a line: Example 8 amount of peracetic acid in solution over time (NEO-PURE Liquid with/without Quadris). The format is physicochemical. The conditions noted are these: diluted NEO-PURE Liquid. An excerpt: Another liquid organic formulation based on pre-formed peracetic acid, called NEO-PURE™ Liquid, was formulated to study its compatibility with single-site fungicides such as azoles and strobilurins.
The above formulation contains a minimum of 5% w/w active peracetic acid and 20% w/w hydrogen peroxide.

Regarding `CN(C)[C@@H]1C(=O)C(C(N)=O)=C(O)[C@@]2(O)C(=O)C3=C(O)c4c(O)cccc4[C@@](C)(O)[C@H]3[C@H](O)[C@@H]12.Cl` [Oxytetracycline, oxytetracycline hydrochloride], in the series on Erwinia amylovora, the “bacterial inhibition zone (diameter)” value was “about 3 cm” and the “depth of inhibition through the bacterial lawn to the agar surface” value is reported as “penetrated all the way down to the agar surface”.

For the molecule `CO/C=C(/C(=O)OC)c1ccccc1Oc1cc(Oc2ccccc2C#N)ncn1` [azoxystrobin, methyl (E)-2-{2-[6-(2-cyanophenoxy)pyrimidin-4-yloxy]phenyl}-3-methoxyacrylate], in series [1], the “degradation of azoxystrobin by NEO-BOOST (HPLC)” value is recorded as “did not degrade azoxystrobin at all”. Besides, in series [2], the “decomposition of peracetic acid by the presence of azoxystrobin over time” value was “not decomposed”.

For `[H]/N=C(/N)N[C@H]1[C@H](O)[C@@H](O)[C@H](O[C@@H]2O[C@@H](C)[C@](O)(C=O)[C@H]2O[C@@H]2O[C@@H](CO)[C@H](O)[C@@H](O)[C@@H]2NC)[C@@H](N/C(N)=N\[H])[C@@H]1O` [streptomycin, streptomycin sulfate], in the series with Erwinia amylovora, the “bacterial inhibition zone (diameter)” value is listed as “about 3 cm” and the “depth of inhibition through the bacterial lawn to the agar surface” value is reported as “penetrated all the way down to the agar surface”.
